Assay results published in patent publication US7649012B2, “Compounds, pharmaceutical compositions containing same, and methods of use for same” (FASgen, Inc., priority 2002, dated 2010).
Converted amounts (≈) assume the structure as drawn. Blank lines part the entries; values can stand above or below the compound they belong to.

Legend:
Raji cells = conditions: cited from earlier work
[1] = molecular target: rat liver acyl-CoA synthetase; conditions: read-out: 50% inhibition of rat liver acyl-CoA synthetase; cited from earlier work
viral HIV protease = viral HIV protease (Human immunodeficiency virus type 1 group M subtype B, UniProt P04585); conditions: cited from earlier work
[2] = tested on: Staphylococcus aureus (ATCC # 29213); assay: Broth microdilution MIC; type: cell-based; conditions: Staphylococcus aureus, ATCC29213; Trypticase Soy Broth; read-out: SA/Tsoy(MIC)
Procedure: (§1) A broth microdilution assay is used to assess the antimicrobial activity of the compounds. […] Microorganisms tested include Staphylococcus aureus (ATCC # 29213), Enterococcus faecalis (ATCC # 29212), Pseudomonas aeruginosa (ATCC # 27853), and Escherichia coli (ATCC # 25922). The assay is performed in two growth media, Mueller Hinton Broth and Trypticase Soy Broth. […] Colonies are suspended in sterile broth so that the turbidity matches the turbidity of a 0.5 McFarland standard. The inoculum is diluted 1:10 in sterile broth (Mueller Hinton or Trypticase soy) and 195 ul is dispensed per well of a 96-well plate. The compounds to be tested, dissolved in DMSO, are added to the wells in 5 ul volume at the following concentrations: 25, 12.5, 6.25, 3.125, 1.56 and 0.78 ug/ml in duplicate. Additional concentrations are tested if required. 5 ul of DMSO added to duplicate wells are the vehicle control. Serial dilutions of positive control compounds, vancomycin (E. faecalis and S. aureus) and tobramycin (E. coli and P. aeruginosa), are included in each run. After 24 hours of incubation at 37° C., plates are read at OD600 on a Molecular Devices SpectraMax Plus Spectrophotometer. Average OD600 values are computed using SOFTmax Pro Software (Molecular Devices) and MIC values are determined by linear regression analysis using Prism version 3.02 (Graph Pad Software, San Diego).

[3] = tested on: Pseudomonas aeruginosa (ATCC # 27853); assay: Broth microdilution MIC; type: cell-based
Procedure: as §1

[4] = tested on: MCF-7 human breast cancer cells; assay: Crystal violet cell growth assay; type: cell-based; conditions: MCF7, MCF-7, 72 hours, read-out: Cr. Violet(IC50)
Procedure: The crystal violet assay measure cell growth but not cytotoxicity. This assay employs crystal violet staining of fixed cells in 96-well plates with subsequent solubilization and measurement of OD490 on a spectrophotometer. The OD490 corresponds to cell growth per unit time measured. Cells are treated with the compounds of interest or vehicle controls and IC50 for each compound is computed.
To measure the cytotoxicity of specific compounds against cancer cells, 5×10^4 MCF-7 human breast cancer cells, obtained from the American Type Culture Collection are plated per well in 24 well plates in DMEM medium with 10% fetal bovine serum, penicillin, and streptomycin. Following overnight culture at 37° C. and 5% CO2, the compounds to be tested, dissolved in DMSO, are added to the wells in 1 μl volume at the following concentrations: 50, 40, 30, 20, and 10 μg/ml in triplicate. Additional concentrations are tested if required. 1 μl of DMSO is added to triplicate wells are the vehicle control. C75 is run at 10, and 5 μg/ml in triplicate as positive controls.
After 72 hours of incubation, cells are stained with 0.5 ml of Crystal Violet stain (0.5% in 25% methanol) in each well. After 10 minutes, wells are rinsed, air dried, and then solubilized with 0.5 ml 10% sodium dodecylsulfate with shaking for 2 hours.

[5] = tested on: MCF-7 human breast cancer cells; assay: [14C]acetate incorporation into total lipids; type: cell-based; conditions: [14C]acetate incorporation into lipids
Procedure: This assay measures the incorporation of [^14C]acetate into total lipids and is a measure of fatty acid synthesis pathway activity in vitro. It is utilized to measure inhibition of fatty acid synthesis in vitro.
MCF-7 human breast cancer cells cultured as above, are plated at 5×10^4 cells per well in 24-well plates. […] DMSO is added to triplicate wells for a vehicle control. C75 is run at 5 and 10 μg/ml in triplicate as positive controls. After 4 hours of incubation, 0.25 μCi of [^14C]acetate (10 μl volume) is added to each well.
After 2 hours of additional incubation, medium is aspirated from the wells and 800 μl of chloroform:methanol (2:1) and 700 μl of 4 mM MgCl2 is added to each well. Contents of each well are transferred to 1.5 Eppendorf tubes, and spun at full-speed for 2 minutes in a high-speed Eppendorf Microcentrifuge 5415D. After removal of the aqueous (upper) layer, an additional 700 μl of chloroform:methanol (2:1) and 500 μl of 4 mM MgCl2 are added to each tube and then centrifuged for 1 minutes as above. The aqueous layer is removed with a Pasteur pipette and discarded. An additional 400 μl of chloroform:methanol (2:1) and 200 μl of 4 mM MgCl2 are added to each tube, then centrifuged and aqueous layer is discarded. The lower (organic) phase is transferred into a scintillation vial and dried at 40° C. under N2 gas. Once dried, 3 ml of scintillant (APB #NBC5104) is added and vials are counted for ^14C. The Beckman Scintillation counter calculates the average cpm values for triplicates.
The IC50 for the compounds is defined as the concentration of drug leading to a 50% reduction in [^14C]acetate incorporation into lipids compared to controls. […] The average cpm values are computed by the Beckman scintillation counter (Model LS6500) for each compound concentration. Computation of linear regression, best-fit line, r^2, and 95% confidence intervals are calculated using Prism Version 3.0 (Graph Pad Software).

Structure (SMILES): CCCC=CCC=CC=CC=NN=NO [Triacsin C, 1-hydroxy-3-(E, E, E-2′,4′,7′-undecatrienylidine) triazene]
concentration causing growth inhibition in Raji cells (Raji cells): 1.0 µM
IC50 [1]: 8.7 µM

Structure (SMILES): C/C=C/C/C=C/CCC(=O)[C@H]1O[C@H]1C(N)=O [cerulenin, (2S,3R)-2,3-epoxy-4-oxo-7,10 dodecadienoyl amide]
concentration for inhibition of viral HIV protease (viral HIV protease): 5 mg/mL

MIC [2]: 23 µg/mL (≈ 76.6 µM)
PSAE/MH(MIC) ([3]; Mueller Hinton Broth): Neg
PSAE/Tsoy(MIC) ([3]; Trypticase Soy Broth): Neg
Structure (SMILES): CCCCCCCC[C@@]1(C)SC(=O)C(C(=O)OC)=C1O (racemic)

IC50 [4]: 15.1 µg/mL (≈ 50.9 µM)
14C(IC50) [5]: Neg
Structure (SMILES): C=CCOC1=C(C)C(=O)S[C@]1(C)CCCCCCCC (racemic)
